Columns and labels:
OVCAR8 = assay: drug sensitivity score (DSS2) on cancer cell count; higher = more sensitive; extreme values may be limits of the assay; settings: 72 h
Method in brief: (§1)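 Ovarian cancer cells grown alone or 1:1 with lung or skin fibroblasts in direct co-culture were treated for 72 h on 384-well plates carrying 528 approved and investigational compounds at 5 concentrations. Fixed cells were stained for CK8/18 with Hoechst and imaged to count cancer cells. A drug sensitivity score was then derived in Breeze from logistic curve fits.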

KURAMOCHI = assay: as above; settings: 72 h
Method in brief: as §1

[1] = co-cultured fibroblast: BJHTERT
[2] = co-cultured fibroblast: none (monoculture)

Row | Compound | drug sensitivity score (OVCAR8; [1]) [DSS] | drug sensitivity score (OVCAR8; co-cultured fibroblast: WI38) [DSS] | drug sensitivity score (OVCAR8; [2]) [DSS] | drug sensitivity score (KURAMOCHI; [1]) [DSS] | drug sensitivity score (KURAMOCHI; co-cultured fibroblast: WI38) [DSS] | drug sensitivity score (KURAMOCHI; [2]) [DSS]
1 | O=C(c1ccc(OCCN2CCCCC2)cc1)c1c(-c2ccc(O)cc2)sc2cc(O)ccc12 [Raloxifene] | 2.5 | 0 | 0 | 4 | 0 | 0
2 | Cc1nc(=O)c2cc(CN(C)c3ccc(C(=O)N[C@@H](CCC(=O)O)C(=O)O)s3)ccc2[nH]1 [Raltitrexed] | 16.4 | 18.3 | 15.9 | 11.2 | 16.8 | 10.4
3 | Cn1nccc1Nc1nccc(-c2ccn([C@H](CO)c3ccc(Cl)c(F)c3)c(=O)c2)n1 [Ravoxertinib] | 2.2 | 4.3 | 4.9 | 3.6 | 3.2 | 3.3
4 | CNC(=O)c1cc(Oc2ccc(NC(=O)Nc3ccc(Cl)c(C(F)(F)F)c3)c(F)c2)ccn1 [Regorafenib] | 5.4 | 3.3 | 5.5 | 5.5 | 3.6 | 3.2
5 | CCOC(=O)C1=CCCC[C@H]1S(=O)(=O)Nc1ccc(F)cc1Cl [Resatorvid] | 0 | 0 | 0 | 0 | 0.2 | 0
6 | CCOCc1nc2c(N)nc3ccccc3c2n1CC(C)(C)O [Resiquimod] | 0.3 | 0 | 0 | 0 | 0 | 6.7
7 | CN(C)Cc1ccc(S(=O)(=O)n2ccc(/C=C/C(=O)NO)c2)cc1 [Resminostat] | 18.3 | 12.8 | 15 | 11 | 10 | 10.4
8 | CN(C)C(=O)c1cc2cnc(Nc3ccc(N4CCNCC4)cn3)nc2n1C1CCCC1 [Ribociclib] | 3.9 | 0 | 0 | 0 | 3.9 | 5.2
9 | CO[C@H]1C[C@@H]2CC[C@@H](C)[C@@](O)(O2)C(=O)C(=O)N2CCCC[C@H]2C(=O)O[C@H]([C@H](C)C[C@@H]2CC[C@@H](OP(C)(C)=O)[C@H](OC)C2)CC(=O)[C@H](C)/C=C(\C)[C@@H](O)[C@@H](OC)C(=O)[C@H](C)C[C@H](C)/C=C/C=C/C=C/1C [Ridaforolimus] | 7.1 | 0 | 9.8 | 11.6 | 13.4 | 8.1
10 | COc1cc(OC)c(/C=C/S(=O)(=O)Cc2ccc(OC)c(NCC(=O)O)c2)c(OC)c1 [Rigosertib] | 27.7 | 28.9 | 30.4 | 24 | 24.1 | 28.8
11 | C[C@H]1CNCCCN1S(=O)(=O)c1cccc2cncc(F)c12 [Ripasudil] | 3 | 6.9 | 0.2 | 1.8 | 0 | 0.4
12 | C=CC(=O)Nc1cccc(Nc2nc(Nc3ccc(N4CCN(C(C)=O)CC4)cc3OC)ncc2C(F)(F)F)c1 [Rociletinib] | 6.7 | 4.1 | 8.1 | 5.8 | 4.6 | 3.7
13 | O=C(CCCCCCNC(=O)c1cnc(N(c2ccccc2)c2ccccc2)nc1)NO [Rocilinostat] | 10.4 | 5.2 | 18.6 | 6.7 | 6.9 | 7.1
14 | C/C=C1\NC(=O)[C@H]2CSSCC/C=C/[C@H](CC(=O)N[C@H](C(C)C)C(=O)N2)OC(=O)[C@H](C(C)C)NC1=O [Romidepsin] | 29.2 | 26.5 | 30.4 | 28 | 30 | 32.7
15 | Cc1nc(C(=O)NCC(=O)O)c(O)c2ccc(Oc3ccccc3)cc12 [Roxadustat] | 0 | 0 | 0 | 3 | 0 | 0
16 | CN(C)C[C@@H]1CCn2cc(c3ccccc32)C2=C(C(=O)NC2=O)c2cn(c3ccccc23)CCO1 [Ruboxistaurin] | 5.5 | 3.8 | 6.9 | 8.7 | 6.5 | 14.9
17 | CNCc1ccc(-c2[nH]c3cc(F)cc4c3c2CCNC4=O)cc1 [Rucaparib] | 8.5 | 3.5 | 6.5 | 3.7 | 5.3 | 14.1
18 | N#CC[C@H](C1CCCC1)n1cc(-c2ncnc3[nH]ccc23)cn1 [Ruxolitinib] | 1.3 | 2.7 | 2.5 | 0 | 0 | 0
19 | CC(C)N(CCCNC(=O)Nc1ccc(C(C)(C)C)cc1)C[C@H]1O[C@@H](n2cc(Br)c3c(N)ncnc32)[C@H](O)[C@@H]1O [SGC0946] | 0 | 0 | 0 | 0.1 | 3.3 | 0
20 | COc1ccc(CCc2nc3cc(-c4c(C)noc4C)ccc3n2C[C@H](C)N2CCOCC2)cc1Cl [SGC-CBP30] | 9.9 | 1.7 | 4.5 | 5.7 | 1.3 | 3.2
21 | CN1CCC(CNc2ccc3ncc(-c4cccc(OC(F)(F)F)c4)n3n2)CC1 [SGI-1776] | 8.5 | 4.5 | 5.2 | 7.9 | 6.1 | 7.6
22 | CN(CC(=O)N(Cc1ccc(C2CCCCC2)cc1)c1ccc(C(=O)O)cc1)S(=O)(=O)c1c(F)c(F)c(F)c(F)c1F [SH-4-54] | 0 | 6 | 7.3 | 8.5 | 7.8 | 12
23 | CCc1c2c(nc3ccc(O)cc13)-c1cc3c(c(=O)n1C2)COC(=O)[C@]3(O)CC [SN-38] | 40.9 | 40.9 | 45 | 31.7 | 39.5 | 41
24 | CC(C)(C)c1cnc(CSc2cnc(NC(=O)C3CCNCC3)s2)o1 [SNS-032] | 28.3 | 21 | 24.3 | 21.1 | 18.1 | 25.5
25 | Cc1cc2c(C(=O)NC[C@H](C)c3ccccc3)c(O)c(O)cc2c(O)c1-c1c(C)cc2c(C(=O)NC[C@H](C)c3ccccc3)c(O)c(O)cc2c1O [Sabutoclax] | 16.2 | 14.2 | 26.7 | 3 | 4.3 | 23.7

Row | Compound | drug sensitivity score (OVCAR8; [1]) [DSS] | drug sensitivity score (OVCAR8; co-cultured fibroblast: WI38) [DSS] | drug sensitivity score (OVCAR8; [2]) [DSS] | drug sensitivity score (KURAMOCHI; [1]) [DSS] | drug sensitivity score (KURAMOCHI; co-cultured fibroblast: WI38) [DSS] | drug sensitivity score (KURAMOCHI; [2]) [DSS]
26 | CC[C@@H](C(=O)[C@@H](C)[C@@H](O)[C@H](C)[C@@H]1O[C@@H]([C@@H](CC)C(=O)O)CC[C@@H]1C)[C@H]1O[C@]2(C=C[C@@H](O)[C@]3(CC[C@@](C)([C@H]4CC[C@](O)(CC)[C@H](C)O4)O3)O2)[C@H](C)C[C@@H]1C [Salinomycin] | 22.1 | 12.2 | 21.1 | 23.1 | 23.6 | 28.5
27 | CC(C)n1nc(-c2ccc3oc(N)nc3c2)c2c(N)ncnc21 [Sapanisertib] | 11 | 7.9 | 11.8 | 13.5 | 12.4 | 15.1
28 | CNC(=O)CN1CCC(Oc2cc3c(Nc4cccc(Cl)c4F)ncnc3cc2OC)CC1 [Sapitinib] | 1.7 | 1 | 1.7 | 2.3 | 0 | 0
29 | CN1CCN(CCOc2cc(OC3CCOCC3)c3c(Nc4c(Cl)ccc5c4OCO5)ncnc3c2)CC1 [Saracatinib] | 9.2 | 13.3 | 14.6 | 10.4 | 9.6 | 9.9
30 | CC1=C2C[C@H]3[C@@H](CC[C@@H]4C[C@H](NS(C)(=O)=O)CC[C@@]43C)[C@@H]2CC[C@@]2(C1)O[C@@H]1C[C@H](C)CN[C@H]1[C@H]2C [Saridegib] | 0 | 0 | 0 | 3.1 | 3.9 | 4.2
31 | O=C(/C=C\n1cnc(-c2cc(C(F)(F)F)cc(C(F)(F)F)c2)n1)NNc1cnccn1 [Selinexor] | 22.4 | 24.3 | 27.1 | 17.1 | 21.8 | 25.3
32 | Cc1cc(F)c(C(=O)Nc2cccc(-c3nncn3C(C)C)n2)cc1-n1cnc(C2CC2)c1 [Selonsertib] | 0 | 0 | 0 | 0 | 0 | 0
33 | Cn1cnc2c(F)c(Nc3ccc(Br)cc3Cl)c(C(=O)NOCCO)cc21 [Selumetinib] | 6.1 | 0 | 7.8 | 15.5 | 6.4 | 20.1
34 | CN1CCN(C(=O)c2ccc3cc(CCNc4ncnc5ccc(C#N)cc45)ccc3c2)CC1 [Senexin B] | 1.1 | 0 | 0.1 | 1.1 | 1.6 | 1
35 | COCC[n+]1c2c(n(Cc3cnccn3)c1C)C(=O)c1ccccc1C2=O [Sepantronium bromide] | 37.1 | 35.5 | 29.9 | 40.7 | 30 | 30.5
36 | Nc1nc2cc(-c3ccc4ncc(C(=O)N5CCOCC5)n4c3)ccc2o1 [Serabelisib] | 0.8 | 0 | 0 | 3.3 | 0.4 | 3.1
37 | O=C(O)c1ccc2c(c1)nc(Nc1cccc(Cl)c1)c1ccncc12 [Silmitasertib] | 2 | 0 | 3 | 4.1 | 3.4 | 0.8
38 | CCC(C)(C)C(=O)O[C@H]1C[C@@H](C)C=C2C=C[C@H](C)[C@H](CC[C@@H]3C[C@@H](O)CC(=O)O3)[C@H]21 [Simvastatin] | 1.8 | 14.6 | 3.6 | 0.4 | 0 | 8.6
39 | CO[C@H]1C[C@@H]2CC[C@@H](C)[C@@](O)(O2)C(=O)C(=O)N2CCCC[C@H]2C(=O)O[C@H]([C@H](C)C[C@@H]2CC[C@@H](O)[C@H](OC)C2)CC(=O)[C@H](C)/C=C(\C)[C@@H](O)[C@@H](OC)C(=O)[C@H](C)C[C@H](C)/C=C/C=C/C=C/1C [Sirolimus] | 4.5 | 0 | 9.2 | 4.2 | 5 | 7.1
40 | COCCNCc1ccc(-c2cc3nccc(Oc4ccc(NC(=O)C5(C(=O)Nc6ccc(F)cc6)CC5)cc4F)c3s2)nc1 [Sitravatinib] | 0 | 1.6 | 1.8 | 3.1 | 5.8 | 0
41 | Cc1c(C(=O)Nc2ccc(N3C[C@@H](C)O[C@@H](C)C3)nc2)cccc1-c1ccc(OC(F)(F)F)cc1 [Sonidegib] | 0.6 | 0 | 0.6 | 0 | 0 | 0
42 | C=CCN(/C=C1/C(=O)O[C@H](COC)[C@@]2(C)C1=C(O)C(=O)C1=C2[C@H](OC(C)=O)C[C@]2(C)C(=O)CC[C@@H]12)CC=C [Sonolisib] | 0 | 0 | 0 | 0 | 1.5 | 0
43 | CNC(=O)c1cc(Oc2ccc(NC(=O)Nc3ccc(Cl)c(C(F)(F)F)c3)cc2)ccn1 [Sorafenib] | 0 | 0 | 0 | 0 | 0 | 0
44 | CN1CCN(c2nc(C3=C(c4c[nH]c5ccccc45)C(=O)NC3=O)c3ccccc3n2)CC1 [Sotrastaurin] | 0.2 | 2.6 | 0 | 1.1 | 0.6 | 12
45 | C=CC(=O)Nc1cccc(Nc2nc(Nc3ccc(OCCOC)cc3)ncc2F)c1 [Spebrutinib] | 0 | 0 | 0 | 0 | 0 | 0
46 | CC(C)n1cnc2c(NCCc3ccc(O)cc3)nc(-c3csc4ccccc34)nc21 [StemRegenin 1] | 2.8 | 0 | 1 | 4.3 | 2.8 | 1.7
47 | CCN(CC)CCNC(=O)c1c(C)[nH]c(/C=C2\C(=O)Nc3ccc(F)cc32)c1C [Sunitinib] | 0.7 | 0 | 0 | 0 | 0 | 3.2
48 | CC(C)(O)CC(=O)NCCn1ccc2ncnc(Nc3ccc(Oc4cccc(C(F)(F)F)c4)c(Cl)c3)c21 [TAK-285] | 0.2 | 0 | 1.2 | 5.2 | 1.6 | 0.6
49 | CCS(=O)(=O)c1cccc(-c2cc(C(=O)NC3CCN(C)CC3)c(C)c3[nH]c4ncc(C)cc4c23)c1 [TAK-901] | 9.4 | 8.3 | 7.1 | 11.8 | 15 | 13.7

Reference: the supplement of paper PMC12420376
